From US4820718A, “N-alkyl-(2- or 5-substituted-2-methoxycarbonyl aminoalkyl furanyl)-substituted cyclimmonium salts and use thereof in PAF inhibition” (Sandoz Pharm. Corp., priority 1987, dated 1989)

Key:
[1] = biological target: T1, Human Platelet PAF Receptor (Homo sapiens, UniProt P25105); assay: Human Platelet PAF Receptor Assay (Test A), inhibition of specific binding of [3H]-PAF to platelets; conditions: [3H]-PAF specific binding
T1 construct: 500 μl of the above-described platelets; endogenous in cells; host or cells: washed human platelets from blood of healthy donors
Procedure: Platelet rich plasma (PRP) is prepared by centrifugation (250×g) of the blood for 20 minutes at room temperature. […] The platelets are resuspended at […] in TT/BSA containing 1.4 mM CaCl2.2H2 O and 0.7 mM MgCl2.6H2 O. All of the tests are conducted in duplicate and each of the test compounds is evaluated at concentrations of 100, 50, 1 and 0.1 μM. For each determination, the following solutions are mixed: 500 μl of the above-described platelets; 10 μl of [^3 H]-PAF (40,000 counts per minute (cpm) to a final concentration of […]); and either 10 μl of the test compound at 50× the desired final concentration, 10 μl of vehicle (total bound), or 10 μl of 1.85×10^-5 M cold PAF (non-specifically bound), […] The supernatants are then aspirated into the same scintillation vials as before and 10 ml, of Scintiverse II (a liquid scintillation cocktail) is added to and mixed therewith. The pellets are resuspended in 500 μl of Scintiverse II and mixed well. […] The amount of specific binding is calculated as the difference in cpm between the total bound [^3 H]-PAF and non-specifically bound [^3 H]-PAF. The percent inhibition of specific binding is determined by dividing the cpm specifically bound in the presence of the test compound by the cpm specifically bound in total, multiplying by 100 and then subtracting from 100. An IC50 (50% inhibitory concentration) value is generated by evaluating the test compound over the full concentration range.

[2] = tested on: PAF-induced human platelet aggregation; assay: Platelet Aggregation Inhibition Assay (PAIA test), PAF-induced human platelet aggregation in vitro; format: cell-based; conditions: human platelet rich plasma
Procedure: All of the compounds of formula I are useful as platelet activating factor inhibitors as indicated by their ability to inhibit platelet activating factor (PAF)-induced human platelet aggregation in vitro according to the Platelet Aggregation Inhibition Assay test (PAIA test) as follows: Human subjects are kept aspirin free for one week and fasted overnight. Platelet rich plasma (PRP) is prepared by centrifugation (200×g.) of freshly drawn blood anti-coagulated with 0.38% sodium citrate (final concentration). Platelet count is adjusted to 250,000 per μl using platelet poor plasma (PPP) obtained by a second centrifugation (700×g.) of the blood sample. An aliquot (0.38 ml) of the PRP is dispensed into cuvettes and maintained at room temperature (22° C.) until used (but for not more than two hours). […] All aggregations are allowed to proceed for 6 minutes for the addition of the inducing agent. The aggregation response is quantitated by determining the area under the curve (AUC). The AUC calculated for the inducing agent alone is considered to be one hundred percent. The potential percent inhibition of the aggregation response is determined by dividing the AUC generated in the presence of the compound by the AUC of the inducing agent alone, multiplying by 100 and then subtracting from 100.

PAF-induced hypotension = PAF-induced hypotension test (Test D); format: in vivo, Wistar rat; conditions: for ED50: Rattus norvegicus, iv, Test D, Wistar rats, PAF-induced blood pressure decrease; for decrease in blood pressure: within 10 sec.
Procedure: Male Wistar rats, weighing approximately 300 gm, are anesthetized and their carotid arteries cannulated to enable their diastolic and systolic arterial blood pressure measurements to be recorded. PAF is then administered intravenously at either 100 or 500 ng/kg, and the blood pressure drop (within 10 sec.) and recovery time required to reach the pre-injection blood pressure level are measured. […] In order to measure the effectiveness of a compound for both the inhibition of blood pressure decreases and shortening of the recovery time, the test compound is administered intravenously over a range of between 5 and 7 dosage levels (1 or 2 test animals per dose) and between 1 and 5 minutes prior to the introduction of PAF to generate an ED50.

[3] = tested on: PAF-mediated broncho-constriction; assay: PAF-induced Pulmonary Inflation Pressure (PIP) Increase test (Test B); format: in vivo, guinea pig; conditions: Cavia porcellus, iv, i.a., guinea pigs, PAF 100 ng/kg i.v., maximal PIP
Procedure: Male guinea pigs, weighing between 300 and 400 gm, are anesthetized, after which time trachea tube, carotid and jugular catheters are inserted. The test animal is then force ventilated employing a small animal Harvard respirator and the resistance to lung inflation (PIP) is measured utilizing a pressure transducer and recorder. The test compound is administered orally at 30 minutes prior to, intravenously (jugular) at 5 minutes prior to, or intraarterially at 1 to 5 minutes prior to the introduction of PAF. The PAF (C18 -Sandoz, Hanover) is dissolved in Tris-Tyrode's bovine serum albumin buffer and administered intravenously (jugular) at 100 ng/kg. Any blood pressure measurements taken are recorded from a transducer attached to the carotid catheter. Two responses are noted in the PIP recordings after the PAF is administered: (1) an immediate response which, in PAF-only treated test animals, averages out to between 70% and 80% more than the baseline PIP values. (This early response is also the greatest response and is, therefore, termed mazimal PIP); and (2) the long term (at least 30 minutes) PIP response which slowly decreases to baseline. A reading at 15 minutes after the administration of PAF is termed the endpoint PIP.

[4] = tested on: PAF-mediated extravasation; assay: PAF-induced Extravasation test (Test C), hemoconcentration; format: in vivo, guinea pig; conditions: Cavia porcellus, iv, i.a., guinea pigs, PAF 100 ng/kg i.v., increase in hematocrit
Procedure: (§1) Male guinea pigs, weighing between 300 and 400 gm, are anesthetized, after which time a femoral catheter is inserted. The test compound is administered intraarterially at one to five minutes prior to the introduction of PAF. The PAF (C18 -Sandoz, Hanover) is dissolved in Tris-Tyrode's bovine serum albumin buffer and administered intravenously (jugular) at 100 ng/kg.
(§2) To determine the hematocrit value, which is employed to index hemoconcentration and is defined as the percent of packed red blood cells in a sample of blood which is centrifuged to separate plasma from the cellular components, blood samples are collected in 50 μl heparinized hematocrit tubes. These samples are taken just prior to the injection of PAF, one minute subsequent to the injection of PAF and every two minutes thereafter until 15 minutes has lapsed subsequent to the injection of PAF. The tubes are then centrifuged and the percent of packed red blood cells (hematocrit) is measured (PAF induces a maximal increase in hematocrit at 5 to 7 minutes subsequent to the injection of PAF). The percent increase in hematocrit over the value prior to the injection of PAF is calculated. The hematocrit values obtained with the test compound are compared to the hemoconcentration values obtained with PAF alone and are expressed as percent inhibition of percent increase in hematocrit. From the values obtained, an ED50 is generated.

[5] = tested on: PAF-induced hemoconcentration; assay: Decrease in inhibition of hemoconcentration over time (Test J); format: in vivo, guinea pig; conditions: i.v., x times the ED50, time still inhibiting 50%
Procedure: as §1, §2
Similarly, a decrease in inhibition of hemoconcentration over time (Test J) can be measured by a modification of Test C described above wherein an amount of the test compound which is x times the ED50 for the compound is intravenously administered to the test animals. By observing the time at which the test compound still inhibits 50% of the hemoconcentration caused by the PAF challenge, the rate of loss of the test compound can be determined employing the above equation.

[6] = tested on: PAF-induced bronchoconstriction; assay: Decrease in inhibition of bronchoconstriction over time (Test I); format: in vivo, guinea pig; conditions: i.v., x times the ED50, time still inhibiting 50%
Procedure: Male guinea pigs, weighing between 300 and 400 gm, are anesthetized, after which time trachea tube, carotid and jugular catheters are inserted. The test animal is then force ventilated employing a small animal Harvard respirator and the resistance to lung inflation (PIP) is measured utilizing a pressure transducer and recorder. The test compound is administered orally at 30 minutes prior to, intravenously (jugular) at 5 minutes prior to, or intraarterially at 1 to 5 minutes prior to the introduction of PAF. The PAF (C18 -Sandoz, Hanover) is dissolved in Tris-Tyrode's bovine serum albumin buffer and administered intravenously (jugular) at 100 ng/kg. Any blood pressure measurements taken are recorded from a transducer attached to the carotid catheter. […] (This early response is also the greatest response and is, therefore, termed mazimal PIP); and (2) the long term (at least 30 minutes) PIP response which slowly decreases to baseline. A reading at 15 minutes after the administration of PAF is termed the endpoint PIP.
Thus, a decrease in inhibition of bronchoconstriction over time (Test I) can be measured by a modification of Test B described above wherein an amount of the test compound which is x times the ED50 for the compound is intravenously administered to the test animals. By observing the time at which the test compound still inhibits 50% of the bronchoconstriction caused by the PAF challenge, the rate of loss of the test compound can be determined employing the following equation: [formula]

T1 sequence (P25105 whole entry): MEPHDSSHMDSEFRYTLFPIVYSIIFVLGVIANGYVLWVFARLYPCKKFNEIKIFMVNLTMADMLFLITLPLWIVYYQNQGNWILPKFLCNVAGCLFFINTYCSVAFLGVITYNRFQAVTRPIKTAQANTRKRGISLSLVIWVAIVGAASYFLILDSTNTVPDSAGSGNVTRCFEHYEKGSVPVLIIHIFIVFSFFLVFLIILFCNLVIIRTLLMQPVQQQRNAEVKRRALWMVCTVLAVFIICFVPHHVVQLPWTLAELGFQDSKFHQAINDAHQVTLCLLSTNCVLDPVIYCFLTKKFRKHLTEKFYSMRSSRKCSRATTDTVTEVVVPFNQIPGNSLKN

Row | Compound | IC50 [1] | IC50 [2] | Rate of loss [5] | Rate of loss [6] | ED50 (PAF-induced hypotension) | ED50 [3] | ED50 [4] | decrease in blood pressure (PAF-induced hypotension; PAF 100 ng/kg i.v.) | recovery time to pre-injection blood pressure level (PAF-induced hypotension; PAF 500 ng/kg i.v.) | decrease in blood pressure (PAF-induced hypotension; PAF 500 ng/kg i.v.)
1 | CCCCCCCCCCCCCCCCCCOCC1(COC(=O)N(Cc2cccc[n+]2CC)C(C)=O)CCCO1 (stereo not shown) [Example 8, 2-[Acetyl[[tetrahydro-2-[(octadecyloxy)methyl]furan-2-yl]methoxycarbonyl]aminomethyl]-1-ethylpyridinium chloride] | 14 nM | 860 nM | – | – | – | – | – | – | – | –
2 | CCCCCCCCCCCCCCCCCCN(C(C)=O)C(=O)OCC1(COC(=O)N(Cc2cccc[n+]2CC)C(C)=O)CCCO1 (stereo not shown) [Example 5, 2-[Acetyl[[tetrahydro-2-[[[[[acetyl(octadecyl)amino]carbonyl]oxy]methyl]furan-2-yl]methoxycarbonyl]aminomethyl]-1-ethylpyridinium chloride] | 2 nM | 48 nM | – | – | 4.5 µg/kg | 0.004 mg/kg | 0.004 mg/kg | – | – | –
3 | CCCCCCCCCCCCCCCCCCNC(=O)OC[C@@]1(C)CC[C@@](C)(COC(=O)N(Cc2cccc[n+]2CC)C(C)=O)O1 (relative stereo) [Example 9, Cis-2-[acetyl[[tetrahydro-2,5-dimethyl-5-[[[[(octadecyl)amino]carbonyl]oxy]methyl]furan-2-yl]methoxycarbonyl]aminomethyl]-1-ethylpyridinium chloride] | 60 nM | 350 nM | 0.92 µg/kg/min | 0.88 µg/kg/min | – | 0.02 mg/kg | 0.015 mg/kg | – | – | –
4 | CCCCCCCCCCCCCCCCCCNC(=O)OCC1(COC(=O)NCCCCCc2cccc[n+]2CC)CCCO1.[Cl-] (stereo not shown) [Example 3, 2-[5-[[[Tetrahydro-2-[[[[(octadecyl)-amino]carbonyl]oxy]methyl]furan-2-yl]methoxycarbonyl]amino]pentyl]-1-ethylpyridinium chloride] | 20 nM | 300 nM | 0.65 µg/kg/min | 0.66 µg/kg/min | 27 µg/kg | 0.005 mg/kg | 0.0085 mg/kg | – | – | –
5 | 1-O-alkyl-2-acetyl-sn-glyceryl-3-phosphoryl-choline [PAF, reference compound] | – | – | – | – | – | – | – | 30% | 10 min | 52%
6 | CCCCCCCCCCCCCCCCCCNC(=O)OCC1(COC(=O)N(Cc2cccc[n+]2CC)C(=O)C(C)(C)C)CCCO1 (stereo not shown) [Example 6, 2-[Trimethylacetyl[[tetrahydro-2-[[[[(octadecyl)amino]carbonyl]oxy]methyl]furan-2-yl]methoxycarbonyl]aminomethyl]-1-ethylpyridinium chloride] | 85 nM | 500 nM | – | – | – | – | – | – | – | –
7 | CCCCCCCCCCCCCCCCCCNC(=O)OC[C@@]1(C)CC[C@@](C)(COC(=O)NCc2cc(C)cc(C)[n+]2C)O1 (relative stereo) [Example 11, Cis-2-[[[tetrahydro-2,5-dimethyl-5-[[[[(octadecyl)amino]carbonyl]oxy]methyl]furan-2-yl]methoxycarbonyl]aminomethyl]-1,4,6-trimethylpyridinium chloride] | 450 nM | 2200 nM | – | – | – | – | – | – | – | –

The remaining compounds from weak to strong by IC50 [1], led by results:

Row | IC50 [1] | IC50 [2] | Rate of loss [5] | Rate of loss [6] | Compound | ED50 (PAF-induced hypotension) | ED50 [3] | ED50 [4] | decrease in blood pressure (PAF-induced hypotension; PAF 100 ng/kg i.v.) | recovery time to pre-injection blood pressure level (PAF-induced hypotension; PAF 500 ng/kg i.v.) | decrease in blood pressure (PAF-induced hypotension; PAF 500 ng/kg i.v.)
8 | 2200 nM | 2000 nM | – | – | CCCCCCCCCCCCCCCCCCNC(=O)OC[C@@]1(C)CC[C@@](C)(COC(=O)N(C)Cc2cccc[n+]2C)O1 (relative stereo) [Example 12, Cis-2-[methyl[[tetrahydro-2,5-dimethyl-5-[[[[(octadecyl)amino]carbonyl]oxy]methyl]furan-2-yl]methoxycarbonyl]aminomethyl]-1-methylpyridinium chloride] | – | – | – | – | – | –
9 | 800 nM | 16000 nM | – | – | CCCCCCCCCCCCCCCCCCNC(=O)OCC1(COC(=O)NCc2cccc[n+]2CC)CCCO1 (stereo not shown) [Example 2, 2-[[[Tetrahydro-2-[[[[(octadecyl)amino]carbonyl]oxy]methyl]furan-2-yl]methoxycarbonyl]aminomethyl]-1-ethylpyridinium chloride] | – | – | – | – | – | –
10 | 560 nM | 550 nM | 10.21 µg/kg/min | 30.0 µg/kg/min | CCCCCCCCCCCCCCCCCCNC(=O)OC[C@@]1(C)CC[C@@](C)(COC(=O)NCc2cccc[n+]2CC)O1 (relative stereo) [Example 10, Cis-2-[[[tetrahydro-5-[[[[(octadecyl)amino]carbonyl]oxy]methyl]-2,5-dimethyl-furan-2-yl]methoxycarbonyl]aminomethyl]-1-ethylpyridinium chloride] | – | 0.15 mg/kg | 0.06 mg/kg | – | – | –
11 | 16 nM | 840 nM | – | – | CCCCCCCCCCCCCCCCCCNC(=O)OCC1(COC(=O)N(Cc2cccc[n+]2CC)C(=O)c2ccccc2)CCCO1 (stereo not shown) [Example 7, 2-[Benzoyl[[tetrahydro-2-[[[[(octadecyl)amino]carbonyl]oxy]methyl]furan-2-yl]-methoxycarbonyl]aminomethyl]-1-ethylpyridinium chloride] | – | – | – | – | – | –
12 | 10 nM | 40 nM | 0.35 µg/kg/min | 0.3 µg/kg/min | CCCCCCCCCCCCCCCCCCNC(=O)OCC1(COC(=O)N(Cc2cccc[n+]2CC)C(C)=O)CCCO1 (stereo not shown) [Example 1, 2-[Acetyl[[tetrahydro-2-[[[[(octadecyl)-amino]carbonyl]oxy]methyl]furan-2-yl]-methoxycarbonyl]aminomethyl]-1-ethylpyridinium chloride] | 3 µg/kg | 0.0025 mg/kg | 0.0028 mg/kg | – | – | –
13 | 8 nM | 130 nM | 1.10 µg/kg/min | 0.35 µg/kg/min | CCCCCCCCCCCCCCCCCCNC(=O)OCC1(COC(=O)N(CCCCCc2cccc[n+]2CC)C(C)=O)CCCO1.[Cl-] (stereo not shown) [Example 4, 2-[5-[Acetyl[[tetrahydro-2-[[[[(octadecyl)-amino]carbonyl]oxy]methyl]furan-2-yl]methoxycarbonyl]amino]pentyl]-1-ethylpyridinium chloride] | – | 0.015 mg/kg | 0.017 mg/kg | – | – | –
